Data from US11230542B2, “Inhibitors of integrated stress response pathway” (Praxis Biotech LLC, priority 2017, dated 2022).

Key:
Assay type in all cases: in vivo, mouse
C57Bl/6J mice with TBI = test: Learning memory, long-term memory and social behavior after traumatic brain injury (TBI)
Description: Wild type three-month-old male C57Bl/6J mice were randomly assigned to TBI or sham surgeries. Animals were anesthetized and maintained at 2% isoflurane and secured to a stereotaxic frame with nontraumatic ear bars. The hair on their scalp was removed, and eye ointment and betadine were applied to their eyes and scalp, respectively. A midline incision was made to expose the skull. A unilateral TBI was induced in the right parietal lobe using the controlled cortical impact model (Nat Neurosci. 2014 August; 17(8): 1073-82). Mice received a 3.5-mm diameter craniectomy, a removal of part of the skull, using an electric microdrill. The coordinates of the craniectomy were: anteroposterior, −2.00 mm and mediolateral, +2.00 mm with respect to bregma. After the craniectomy, the contusion was induced using a 3-mm convex tip attached to an electromagnetic impactor (Leica). The contusion depth was set to 0.95 mm from dura with a velocity of 4.0 m/s sustained for 300 ms. These injury parameters were chosen to target, but not penetrate, the hippocampus. Sham animals received craniectomy surgeries but without the focal injury. After focal TBI surgery, the scalp was sutured and the animal was allowed to recover in an incubation chamber set to 37° C. Animals were returned to their home cage after showing normal walking and grooming behavior.
After 28 days post injury (dpi), animals were tested on the RAWM assay (see above). Animals ran 12 trials during learning test and 4 trials during memory test. Last three trials from learning test and all four trials from memory test were averaged to determine learning memory (learning test) and long-term memory (memory test). […]
To quantitate social tendencies of the treated mice, the time spent with a novel conspecific mouse was measured in a Crawley's three-chamber box (J Vis Exp. 2011; (48): 2473). […] The time spent with the never-before-met animal was recorded. Direct contact between the treated mouse and the housing cage or stretching of the body of the subject mouse in an area 3-5 cm around the housing cage is counted as an active contact.

[1] = tested on: Balb/c mice injected with CT26 colon carcinoma cell line; test: Cachexia-induced muscle atrophy (CT26 tumor cells); conditions: 10 mg/kg daily oral gavage for 13 days
Method: (§1) Wild type six-weeks-old male Balb/c mice obtained from the vivarium Fundacion Ciencia & Vida Chile (Santiago, Chile) were used. Mice were housed in independent plastic cages in a room maintained at 25° C. with a 12-h:12-h light:dark cycle.
1×10^6 CT26 colon carcinoma cell line (ATCC #CRL-2638, ATCC Manassas, Va.) were injected subcutaneously in the right lower flank of each animal for induction of cachexia-induced muscle atrophy as described (Nat Commun. 2012 Jun. 12; 3:896). Non-injected animals were used as controls. At day 6 post tumor-cell injection, animals were randomized into two groups and treated with 10 mg/kg of compound 3 formulated in 50% Polyethylene glycol (PEG-400) in distilled water, or with vehicle (50% PEG-400 in distilled water) by daily oral gavage for 13 days.
For in vivo measurements of protein synthesis, 30 min before the study ends, animals were injected intraperitoneally with puromycin (Sigma-Aldrich, P8833) at 0.04 μmol/g body weight in a volume of 200 μL of PBS. […]
Upon collection, muscles were immediately frozen in liquid nitrogen and then stored at −80° C. […] Protein concentration in supernatants was determined using BCA Protein Assay Kit (Pierce). […]
Puromycin (12D10) (Merck Millipore) and β-actin (Sigma-Aldrich) antibodies were used as primary antibodies. […] Quantification of protein bands was done by densitometry using ImageJ software.

[2] = tested on: CT26 colon carcinoma cell line; test: Tumor growth and density model; conditions: 10 mg/kg daily oral gavage for 13 days from day 6 post tumor-cell injection
Method: as §1
1×10^6 CT26 colon carcinoma cell line (ATCC #CRL-2638, ATCC Manassas, Va.) were injected subcutaneously in the right lower flank of each animal as described (Nat Commun. 2012 Jun. 12; 3:896). Non-injected animals were used as controls. At day 6 post tumor-cell injection, mean tumor volume was about 100 mm^3, animals were weighed and randomized into two groups and treated with 10 mg/kg of compound 3 formulated in 50% Polyethylene glycol (PEG-400) in distilled water, or with vehicle (50% PEG-400 in distilled water) by daily oral gavage for 13 days.
At the end of the study, tumors were measured with digital caliper and tumors volumes, expressed in mm^3, were calculated with the following formula: Tumor volume (mm^3)=(a×b^2)/2 where “a” is the largest perpendicular diameter and “b” is the smallest diameter. Animals were then sacrificed and tumors were extracted and weighed. The volumes and weight of the tumors of each animal are shown in FIGS. 12A and 12B respectively. Bars represent mean±SEM. Statistical analyses were performed using GraphPad Prism software and significant difference was assessed by t test (*<0.05).

O=C(COc1ccc(Cl)cc1)N[C@H]1CC[C@H](NC[C@@H](O)COc2ccc(Cl)cc2)CC1 (single isomer, unassigned) [Compound 3, (+)-2-(4-chlorophenoxy)-N-(4-((3-(4-chlorophenoxy)-2-hydroxypropyl)amino)cyclohexyl)acetamide]
learning memory, number of errors in RAWM (C57Bl/6J mice with TBI; 5 mg/kg intraperitoneally, 28-29 dpi, versus vehicle): made significantly less errors over the course of training
long-term memory, RAWM (C57Bl/6J mice with TBI; 35 dpi, 7 days after training, versus vehicle): a similar trend was seen
social behavior, time spent with the novel mouse (C57Bl/6J mice with TBI; 42 dpi, Crawley's three-chamber box): spent more time with the novel mouse at levels similar to those animals from sham group
muscle weight (gastrocnemius, quadriceps, tibialis anterior) [1]: prevented the CT26-induced muscle weight loss
protein synthesis in muscle ([1]; quadriceps and tibialis anterior, versus vehicle): significantly increase protein synthesis
tumor density (weight/volume ratio) [2]: significantly reduce the tumor density
tumor volume [2]: does not reduce tumor volume
